Test results: PMC9088311, “Cyclic Thiosulfonates for Thiol-Mediated Uptake: Cascade Exchangers, Transporters, Inhibitors” (JACS Au, 2022)
In brackets after ≈: the same amount, converted by molar mass. Several values for one entry are separate records, joined by “and”; a condition that tells them apart may be missing. Equal entries are not always repeated.

Experiments:
HeLa Kyoto cells = experiment: Relative viability (HOE/PI) in HCHT screening
Procedure: One advantage of HCHT imaging of cellular uptake compared to flow cytometry[38],[42],[43] is that it simultaneously gives information on toxicity and intracellular localization. […] Information on the intracellular localization of reporters can be quantified through segmentation of cellular compartments stained with specific markers.[52]
(§1) Uptake inhibition was measured by the automated HCHT imaging used already to elaborate on cytosolic delivery. For inhibitor screening, HK cells in multiwell plates were incubated with increasing concentrations of inhibitors, followed by fluorescent transporters 28, 31, and 32 at a constant concentration. […] If inhibitors are removed before the addition of transporters 28, 31, and 32, the method is referred to as “pre-incubation”. This is of interest to minimize exchange between the transporter and the inhibitor but is often problematic because dynamic covalent exchange between the inhibitor and cellular target can also be reversed and thus lost. The complementary “co-incubation” operates without inhibitor removal before the addition of transporters 28, 31, and 32.
Relative cell viability ( RV) for each condition in the presence of inhibitors was calculated […]
of the relative cell viability ( RVrel) to the concentration of inhibitors ( cinhibitor ) was plotted and fitted with Equation (S19) to retrieve the concentration causing 50% cell growth inhibition (RV50) value and the Hill coefficient ( n).

HK cells, transporter 31 = experiment: HCHT imaging: inhibition of cytosolic delivery of ETP transporter 31; format: cell-based, Human; conditions: co-incubation (C), inhibitor 1 h; for IC50 / IC15: Homo sapiens, 1 h; for IC50: read-out: IC50 (concentration needed to reach 50% inhibition), transporter 31 10 μM; for IC15: read-out: MIC (concentration needed to reach 15% inhibition), transporter 31 10 μM; for MIC (concentration needed to reach 15% inhibition): transporter 31 10 μM
Procedure: as §1
(§2) 536/40 nm emission filter, and red with 531/40 nm excitation filter and 593/40 nm emission […]
(§3) 4.3. HCHT Inhibitor Screening
(§4) Pre-Incubation Method. As in ref. S1. HeLa Kyoto cells were seeded at 8 ×10^4 cells/mL in FluoroBrite DMEM + 10% FBS on μ-Plate 96-well Black ibiTreat sterile and incubated at 37 °C with 5% CO 2 for 24 h. Then, the medium was removed and cells were washed with PBS ([…]), fresh FluoroBrite DMEM medium (4 × 150 μL/well) was added into the cells using a plate washer (Biotek EL406®), keeping a final volume of 135 μL/well. Different concentrations of the inhibitors were prepared by serial dilution with 10% final concentration DMSO (10× in PBS). The solution of compounds 4 and 33 was prepared final DMSO concentration of 10% in each dilution (10× in PBS). These inhibitor solutions (10× final concentration), transporter 28 (10× in DMEM), transporters 31 and 32 (10× in PBS) a solution of HOE (100 μg/mL) and PI (10 μg/mL) in PBS were prepared freshly in a 96-well V-bottom plate before adding to the cells. The inhibitor solutions from the V-bottom plate were added to the cells (15 μL/well) in a final volume of 150 μL/well using an electronic multichannel pipette and cells were incubated for 1 h at 37 °C with 5% CO 2. After this incubation, cells were washed again with PBS and DMEM using the plate washer (in the way mentioned above), and transporter 28 , 31 or 32 from the V-bottom plate was added (15 μL/well) to the cells in a final volume of 150 μL/well. A final concentration of each transporter 28 , 31 and 32 was 5 μM, 10 μM and 0.5 μM, respectively, except for the control wells, where only PBS was added (15 μL/well). Cells treated with transporter 28 or 31 were incubated for 30 min, and cells treated with 32 were incubated for 2 h at 37 °C with 5% CO 2. After that, the cells were washed with PBS and DMEM using the plate washer, and the solution of Hoechst 33342 and PI from the V-bottom plate was added (15 μL/well) to the cells in a final volume of 150 μL/well. After 15 min of incubation at 37 °C with 5% CO 2, the cells were washed and kept in clean FluoroBrite
(§5) DMEM. For live cell imaging, samples were kept at 37 °C with 5% CO 2 during the microscope imaging. The distribution of fluorescence stained cells was analyzed without fixing using an […]

in vitro = conditions: human
[1] = Dynamic covalent ring opening with thiol 10, 1H NMR kinetics; format: physicochemical
Procedure: The dynamic covalent opening of CTO 3 with thiols yields product 9 with a disulfide and a sulfinate (Figure 3B). Consistent with short chalcogen bonds found in silico, the opening of CTO 3 was instantaneous on an NMR timescale with most thiols. To decelerate ring opening, bulky thiols were considered in combination with lowered pH to deactivate the nucleophile. With N-Ac-D-penicillamine 10, the opening of 5 mM CTO 3 in phosphate buffer/DMSO-d6 9:1 was still immediate at pD 6.7 but became detectable in ^1H NMR spectroscopy kinetics under more acidic conditions. The ring-opening rate constants k^O were estimated by fitting the initial velocities to second-order kinetics. Only lower bound rates were approximated from the earliest determined substrate conversions when reactions were still too fast despite the unfavorable conditions. At pD 5.4, dynamic covalent ring opening of CTO 3 with equimolar tertiary thiol 10 occurred with k^O > 0.49 M^–1 s^–1 and equilibrated at K = 6.0 × 10^3 M^–1 (Table 1, entry 1, Figures S4 and S5). At pD 2.7, further deceleration to k^O = 0.10 M^–1 s^–1 shifted the equilibrium to K = 500 M^–1 (Table 1, entry 2, Figures S6 and S7). […] At equilibrium, the concentration of thiol 10 further decreased slowly due to oxidation into the homodimer (Figure 3C, diamonds).
Equilibrium constants for reactions with two reactants A and B and a product C are […]
3.1.1. Dynamic Covalent Ring Opening with Thiols
General procedure A (at 5 mM): To a solution of deuterated sodium phosphate (200 mM in D 2O, pD 2.7 or 5.4, 180 mM final concentration), a stock solution of substrate (0.10 M in DMSO-d6, 5.0 mM final concentration) was added and stirred. Then a stock solution of 10 (0.10 M in DMSO- d6, 5.0 mM final concentration) was added and vigorously stirred at room temperature. The solution was transferred immediately to an NMR tube and NMR data were recorded repeatedly. The concentration of the substrate or thiol at each time plot was calculated by comparing the integrals of the peaks indicated with arrows in the figures, and plotted. The data points were fitted to obtain k1 with the Equation (S6) or (S7) using Graphpad Prism.
General procedure B (at 2 mM): To a solution of deuterated sodium phosphate (200 mM in D 2O, pD 2.7 or 5.4, 180 mM final concentration), DMSO- d6 (10% DMSO- d6 in the reaction mixture) and a stock solution of substrate (0.10 M in DMSO- d6, 2.0 mM final concentration) were added and stirred. Then a stock solution of 10 (0.10 M in DMSO- d6, 2.0 mM final concentration) was added and vigorously stirred at room temperature. The solution was transferred immediately to an NMR tube and NMR data were recorded repeatedly. The concentration of the substrate or thiol at each time plot was calculated by comparing the integrals of the peaks indicated with arrows in the figures, and plotted. The data points were fitted to obtain k1 with the Equation (S6) or (S7) using Graphpad Prism.
General procedure C (for thiosulfinates): To a solution of deuterated sodium phosphate (200 mM in D 2O, pD 5.4, 170 mM final concentration), a stock solution of substrate (0.10 M in DMSO- d6, 5.0 mM final concentration) was added and stirred. Then a stock solution of 10 (0.10 M in DMSO- d6, 10 mM final concentration) was added and vigorously stirred at room […]
data points were fitted to obtain k1 with the Equation (S14) or (S16) using Graphpad Prism. […]
3.1.2. Dependence of Ring Opening on Proticity
A mixture of deuterated phosphoric acid and NaOD (30% in D 2O), which gave pD 2.7 in D2O, was used as buffer in all solvent mixtures. To a solution of deuterated sodium phosphate (20 mM final concentration) in a mixture of D 2O and DMSO- d6 (540 μL, final D 2O content: […]
concentration) was added and stirred. Then a stock solution of 10 (0.10 M in DMSO- d6, 5.0 mM final concentration) was added and vigorously stirred at room temperature. The solution was transferred immediately to an NMR tube and 1H NMR data were recorded repeatedly. […]

HK cells, transporter 28 = experiment: HCHT imaging: inhibition of cytosolic delivery of CTO transporter 28; format: cell-based, Human; conditions: pre-incubation (P), inhibitor 1 h
Procedure: as §1, §2, §3, §4, §5

[2] = with transporter 31, co-incubation (C)

Row | SMILES | IC50 (HK cells, transporter 31) [µM] | IC15 (HK cells, transporter 31) [µM] | MIC (concentration needed to reach 15% inhibition) (HK cells, transporter 31) [µM] | RV50 (concentration needed to lower relative viability by 50%) (HeLa Kyoto cells; [2]) [µM] | viability at 7 h, 50 µM (in vitro) [%] | also measured
1 | CCN1C(=O)C2SSC1C(=O)N2CC(=O)NCCNC(=S)Nc1ccc(-c2c3ccc(=O)cc-3oc3cc(O)ccc23)c(C(=O)O)c1 (stereo not shown) [Compound 31, reference compound] | – | – | – | – | – | toxicity of transporters (in words) (HeLa Kyoto cells; conditions of HCHT screening (28 5 μM, 31 10 μM, 32 0.5 μM)): not toxic
2 | O=S(O)CC(O)C(O)CSSCCSSCC(O)C(O)CS(=O)O (stereo not shown) [Compound 40] | 50 | 7.8 | 8 | >50 | 96 | –
3 | CSS(C)(=O)=O [Compound 14, reference compound] | – | – | – | – | – | k^O, rate constant of ring opening (or equivalent for acyclic controls) ([1]; equimolar 10, rt, pD 2.7, 90% D2O, Na+ phosphate 180 mM, substrate 2 mM): 0.52 M^–1 s^–1; krel^O, rate constant of ring opening relative to 3 ([1]; pD 2.7, 90% D2O, 2 mM): 5.2
4 | CC(C)(C)[Si](C)(C)O[C@@H]1CS(=O)(=O)SC[C@@H]1O [Compound 6] | 5 ± 1 | < 1 | – | – | – | viability at 7 h, 5 µM (in vitro): 105 ± 7%
5 | NCCNC(=O)O[C@H]1CSS(=O)(=O)C[C@H]1O [Compound 39] | > 50 | 14 | – | >50 | 86 | –
6 | O=C(O)c1cc(SSc2ccc([N+](=O)[O-])c(C(=O)O)c2)ccc1[N+](=O)[O-] [Compound 16, 5,5’-Dithiobis(2-nitrobenzoic acid), reference compound] | – | – | – | – | – | k^O, rate constant of ring opening (or equivalent for acyclic controls) ([1]; equimolar 10, rt, pD 5.4, 90% D2O/DMSO-d6, Na+ phosphate 180 mM, substrate 5 mM): 0.11 M^–1 s^–1; krel^O, rate constant of ring opening relative to 3 ([1]; pD 5.4, 90% D2O, 5 mM): <0.22; ring opening/exchange slower than CTO 3 (fold) ([1]; with thiol 10, pD 5.4): > 5 ×; viability at 7 h, 5 µM (in vitro): 89%
7 | C#CCNC(=O)CC[C@H](NC(=O)COCCNC(=O)O[C@H]1CSS(=O)(=O)C[C@H]1O[Si](C)(C)C(C)(C)C)C(=O)NCCOCCNC(=O)O[C@H]1CSS(=O)(=O)C[C@H]1O[Si](C)(C)C(C)(C)C [Compound 44] | – | – | – | – | – | RV50 (concentration needed to lower relative viability by 50%) (HeLa Kyoto cells; with transporter 28, pre-incubation (P)): 4.1 ± 0.3 µM and 4 µM; viability at 7 h, 10 µM (in vitro): 98%
8 | CCCNC(=O)O[C@H]1CSS(=O)(=O)C[C@H]1O[Si](C)(C)C(C)(C)C [Compound 43] | – | – | – | – | – | IC15 (HK cells, transporter 28; Homo sapiens, 1 h, read-out: MIC (concentration needed to reach 15% inhibition), transporter 28 5 μM): 4.1 µM; IC50 (HK cells, transporter 28; Homo sapiens, read-out: IC50 (concentration needed to reach 50% inhibition), transporter 28 5 μM): > 50 µM; MIC (concentration needed to reach 15% inhibition) (HK cells, transporter 28; transporter 28 5 μM): 4 µM (≈ 1.53 µg/mL); viability at 7 h, 10 µM (in vitro): 87%
9 | CC(=O)O[C@H]1CSS(=O)(=O)C[C@H]1O [Compound 36] | 27 | 2.1 | 2 | >50 | 97 | –
10 | CC(C)(C)[Si](C)(C)O[C@@H]1CS(=O)(=O)SC[C@@H]1OC(=O)NCC[N+](C)(C)C [Compound 38] | 47 | 23 | – | – | 37 | –
11 | O=S1(=O)C[C@H](O)[C@@H](O)CS1 [Compound 15] | 22 | 1.5 | – | >500 | – | k^O, rate constant of ring opening ([1]; equimolar 10, rt, pD 2.7, 90% D2O/DMSO-d6, Na+ phosphate 180 mM, substrate 5 mM): >0.56 M^–1 s^–1; krel^O, rate constant of ring opening relative to 3 ([1]; pD 2.7, 90% D2O, 5 mM): >5.6; ring opening faster than 3 (fold) ([1]; with thiol 10, pD 2.7): 5 ×
12 | O=c1c2ccccc2[se]n1-c1ccccc1 [Compound 46, Ebselen, reference compound] | 49 | < 2 | <2 | >100 | 40 | –
13 | O=S(O)CC(O)C(O)CSSCC(O)C(O)CS(=O)O (stereo not shown) [Compound 37] | 60 ± 20 | 6.8 | 7 | >50 | 97 | –
